This note sets out measurements from US20240279221A1, “HETEROCYCLIC COMPOUNDS AND METHODS OF USE” (Schrödinger, Inc., priority 2021, published 2024).

Test [1] deals with SOS1:KRAS (G12C) interaction (Homo sapiens (Human), UniProt Q07889). Briefly: SOS1-KRas(G12C) FRET Assay. The note with it: 0.5 nM His10-SOS1 (res. 564-1049), 2.5 nM GST-KRAS (res. 1-169, G12C); read-out: SOS-KRas(G12C) FRET IC50. It counts as binding. The procedure, abridged: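 Compounds were pre-incubated 15 min at 25° C with SOS1 (His10, res. 564-1049; 0.5 nM final) and anti-6His-XL665, then GST-KRAS G12C (res. 1-169; 2.5 nM final) with anti-GST-Eu(K) was added for 2 h at RT. The buffer was PBS, 0.1% BSA, 5 mM MgCl2, 100 mM KF, 5 mM DTT with 0.5% DMSO. The 665/615 nm signal was normalised to DMSO and no-SOS1 controls, and IC50 and Hill coefficient were fitted by non-linear regression.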
SOS1:KRAS (G12C) interaction, sequence (Q07889 564-1049, stated change not applied): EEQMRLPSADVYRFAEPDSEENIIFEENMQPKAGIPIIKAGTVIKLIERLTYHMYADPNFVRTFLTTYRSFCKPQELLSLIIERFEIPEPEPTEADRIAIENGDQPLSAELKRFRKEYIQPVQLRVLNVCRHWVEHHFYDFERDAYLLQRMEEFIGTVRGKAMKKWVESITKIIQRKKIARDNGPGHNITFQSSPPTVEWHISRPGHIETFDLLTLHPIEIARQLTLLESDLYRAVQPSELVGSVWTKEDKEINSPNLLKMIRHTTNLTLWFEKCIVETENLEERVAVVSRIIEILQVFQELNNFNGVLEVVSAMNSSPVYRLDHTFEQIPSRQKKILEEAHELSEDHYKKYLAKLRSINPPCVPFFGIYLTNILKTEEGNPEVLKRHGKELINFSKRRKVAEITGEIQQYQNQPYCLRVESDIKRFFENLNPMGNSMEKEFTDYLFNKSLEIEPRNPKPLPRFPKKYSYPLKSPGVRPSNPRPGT

The next test concerns the target human SOS1 (Homo sapiens (Human), UniProt Q07889). Kind of test: Surface Plasmon Resonance (SPR) SOS1 Binding Assay. The note with it: biotinylated SOS1 (res. 564-1049), 25° C., kinetic or steady state fit, read-out: KD for hSOS1. How it is done:
Binding to SOS1 was measured using a SPR assay with purified recombinant human SOS1 substrate (res. 564-1049 with N-terminal Avi tag; purified and biotinylated based on Hillig, et al., Proc Natl Acad Sci USA (2019); 116(7):2551-2560). SPR measurements were performed on a Biacore 8K SPR instrument (GE Healthcare, Sweden). Assays were performed at 25° C. using Series S SA sensor chips pre-coated with streptavidin (GE Healthcare, Cat. BR100531). Biotinylated SOS1 diluted in sample buffer (20 mM Tris HCl, 150 mM NaCl, 1 mM DTT, 0.05% TWEEN 20, 1 mM MgCl2, pH 8.0) was captured to one flow cell of the chip to about 3,000 resonance units (RU) using sample buffer supplemented with 5% DMSO as a running buffer. Serial dilutions of the assayed compounds in the running buffer at 100, 50 or 0.5 μM were injected for 60 s at a flow rate of 30 μL/min and association phases were recorded. Dissociation of the samples was monitored for 600 s. Data processing was performed using Biacore Insight Software (Biacore, GE Healthcare). Sensorgrams recorded on a SA flow cell without captured protein were subtracted from sensorgrams recorded on the SOS1 surface. Blank injections of running buffer were used for double referencing and solvent correction was applied to all sample sensorgrams to correct for buffer mismatches. KDs were estimated using a kinetic or steady state, where applicable, fitting model describing a reversible equilibrium with 1:1 binding between SOS1 and the compound.

human SOS1, sequence (Q07889 564-1049): as the sequence (Q07889 564-1049, stated change not applied) above

For the compound `C[C@@H](Nc1nn(C)c(=O)c2cc(=O)n(C3CC3)cc12)c1ccc2c(C#N)nn(C)c2c1` (single isomer, unassigned) [Example 25], in test [1], the IC50 was 3860 nM. Further, the equilibrium dissociation constant (Kd) on human SOS1 turned out to be 225 nM.

For the compound `C[C@H](Nc1nn(C)c(=O)c2cc(=O)n(C3CC3)cc12)c1ccc2c(C#N)nn(C)c2c1` (single isomer, unassigned) [Example 26], the 50% inhibitory concentration (IC50) in test [1] is 100000 nM. For the same compound, at human SOS1, the Kd is > 50000 nM. The matching figures for `Cc1cc([C@@H](C)Nc2nn(C)c(=O)c3cc(=O)n(C4CC4)cc23)cc2c1c(C#N)nn2C` (single isomer, unassigned) [Example 27]: 1530 nM and 134 nM. The matching figures for `Cc1cc([C@H](C)Nc2nn(C)c(=O)c3cc(=O)n(C4CC4)cc23)cc2c1c(C#N)nn2C` (single isomer, unassigned) [Example 28]: 76200 nM and 3020 nM. The matching figures for `C[C@@H](Nc1nn(C)c(=O)c2cc(=O)n([C@H]3CCOC[C@@H]3F)cc12)c1cccc(C(F)F)c1F` (single isomer, unassigned) [Example 30]: 20.7 nM and 9 nM. Turning to `C[C@@H](Nc1nn(C)c(=O)c2cc(=O)n([C@@H]3CCOC[C@H]3F)cc12)c1cccc(C(F)F)c1F` (single isomer, unassigned) [Example 31], the IC50 in test [1] came out at 146 nM. For the same compound, the Kd at human SOS1 amounted to 45 nM. In the same order, the values of `C[C@@H](Nc1nn(C)c(=O)c2cc(=O)n([C@@H]3CCOC[C@@H]3F)cc12)c1cccc(C(F)F)c1F` (single isomer, unassigned) [Example 32] are 1050 nM and 229 nM. The matching figures for `C[C@@H](Nc1nn(C)c(=O)c2cc(=O)n([C@H]3CCOC[C@H]3F)cc12)c1cccc(C(F)F)c1F` (single isomer, unassigned) [Example 33]: 31.3 nM and 8 nM. Regarding `CC(=O)N1CC(C(F)F)(n2cc3c(N[C@H](C)c4cccc(C(F)F)c4F)nn(C)c(=O)c3cc2=O)C1` [Example 154, (R)-6-(1-acetyl-3-(difluoromethyl)azetidin-3-yl)-4-((1-(3-(difluoromethyl)-2-fluorophenyl)ethyl)amino)-2-methylpyrido[3,4-d]pyridazine-1,7(2H,6H)-dione], in test [1], the IC50 was 18.5 nM.

For the compound `C[C@@H](Nc1nn(C)c(=O)c2cc(=O)n(C34CC(C(F)(F)F)(C3)C4)cc12)c1cccc(C(F)F)c1F` [Example 155, (R)-4-((1-(3-(difluoromethyl)-2-fluorophenyl)ethyl)amino)-2-methyl-6-(3-(trifluoromethyl)bicyclo[1.1.1]pentan-1-yl)pyrido[3,4-d]pyridazine-1,7(2H,6H)-dione], the IC50 in test [1] was 159 nM.

As for `C[C@@H](Nc1nn(C)c(=O)c2cc(=O)n(C3(C(F)(F)F)COC3)cc12)c1cccc(C(F)F)c1F` [Example 156, (R)-4-((1-(3-(difluoromethyl)-2-fluorophenyl)ethyl)amino)-2-methyl-6-(3-(trifluoromethyl)oxetan-3-yl)-2,6-dihydropyrido[3,4-d]pyridazine-1,7-dione], in test [1], the half-maximal inhibitory concentration (IC50) came out at 66.6 nM. For the compound `CC(Nc1nn(C)c(=O)c2cc(=O)n(C3CC3)cc12)c1cc(F)cc(C(F)(F)F)c1` (stereo not drawn) [Example 159, 6-cyclopropyl-4-((1-(3-fluoro-5-(trifluoromethyl)phenyl)ethyl)amino)-2-methylpyrido[3,4-d]pyridazine-1,7(2H,6H)-dione], in test [1], the IC50 is 3480 nM. The same measure, in the same setting: to `C[C@@H](Nc1nn(C)c(=O)c2cc(=O)n(C3(C(F)F)CC3)cc12)c1cccc2c1OCC2(F)F` [Example 160, (R)-4-((1-(3,3-difluoro-2,3-dihydrobenzofuran-7-yl)ethyl)amino)-6-(1-(difluoromethyl)cyclopropyl)-2-methyl-2,6-dihydropyrido[3,4-d]pyridazine-1,7-dione] belongs 36.7 nM; to `COCC(F)(F)c1cccc([C@@H](C)Nc2nn(C)c(=O)c3cc(=O)n(C4(C(F)F)CC4)cc23)c1F` [Example 161, 4-[[(1R)-1-[3-(1,1-difluoro-2-methoxy-ethyl)-2-fluoro-phenyl]ethyl]amino]-6-[1-(difluoromethyl)cyclopropyl]-2-methyl-pyrido[3,4-d]pyridazine-1,7-dione], 24.9 nM. On the same count and under the same terms, as for `COCC(F)(F)c1cccc([C@H](C)Nc2nn(C)c(=O)c3cc(=O)n(C4(C(F)F)CC4)cc23)c1F` [Example 162, 4-[[(1S)-1-[3-(1,1-difluoro-2-methoxy-ethyl)-2-fluoro-phenyl]ethyl]amino]-6-[1-(difluoromethyl)cyclopropyl]-2-methyl-pyrido[3,4-d]pyridazine-1,7-dione], the figure is > 10000 nM. Same read-out and setting: as for `C[C@@H](Nc1nn(C)c(=O)c2cc(=O)n(C3(C(F)F)CC3)cc12)c1cccc2c(F)coc12` [Example 163, (R)-6-(1-(difluoromethyl)cyclopropyl)-4-((1-(3-fluorobenzofuran-7-yl)ethyl)amino)-2-methyl-2,6-dihydropyrido[3,4-d]pyridazine-1,7-dione], the figure is 75.6 nM.

With `C[C@@H](Nc1nn(C)c(=O)c2cc(=O)n(C3(C(F)F)CC3)cc12)c1cccc(C(F)(F)c2ccncc2)c1F` [Example 174, (R)-4-((1-(3-(difluoro(pyridin-4-yl)methyl)-2-fluorophenyl)ethyl)amino)-6-(1-(difluoromethyl)cyclopropyl)-2-methyl-2,6-dihydropyrido[3,4-d]pyridazine-1,7-dione], the IC50 in test [1] came out at 4.4 nM. On the same count and under the same terms, as for `C[C@H](Nc1nn(C)c(=O)c2cc(=O)n(C3(C(F)F)CC3)cc12)c1cccc(C(F)(F)c2ccncc2)c1F` [Example 175, (S)-4-((1-(3-(difluoro(pyridin-4-yl)methyl)-2-fluorophenyl)ethyl)amino)-6-(1-(difluoromethyl)cyclopropyl)-2-methyl-2,6-dihydropyrido[3,4-d]pyridazine-1,7-dione], the figure is 4490 nM; as for `Cc1cnc(C(F)(F)c2cccc([C@@H](C)Nc3nn(C)c(=O)c4cc(=O)n(C5(C(F)F)CC5)cc34)c2F)cn1` [Example 176, (R)-4-((1-(3-(difluoro(5-methylpyrazin-2-yl)methyl)-2-fluorophenyl)ethyl)amino)-6-(1-(difluoromethyl)cyclopropyl)-2-methyl-2,6-dihydropyrido[3,4-d]pyridazine-1,7-dione], 20.1 nM. On the same count and under the same terms, to `Cc1cnc(C(F)(F)c2cccc([C@H](C)Nc3nn(C)c(=O)c4cc(=O)n(C5(C(F)F)CC5)cc34)c2F)cn1` [Example 177, (S)-4-((1-(3-(difluoro(5-methylpyrazin-2-yl)methyl)-2-fluorophenyl)ethyl)amino)-6-(1-(difluoromethyl)cyclopropyl)-2-methyl-2,6-dihydropyrido[3,4-d]pyridazine-1,7-dione] belongs > 10000 nM; to `C[C@@H](Nc1nn(C)c(=O)c2cc(=O)n(C34COC(CF)(C3)C4)cc12)c1cccc(C(F)F)c1F` [Example 178, (R)-4-((1-(3-(difluoromethyl)-2-fluorophenyl)ethyl)amino)-6-(1-(fluoromethyl)-2-oxabicyclo[2.1.1]hexan-4-yl)-2-methyl-2,6-dihydropyrido[3,4-d]pyridazine-1,7-dione], 76 nM; to `C[C@@H](Nc1nn(C)c(=O)c2cc(=O)n(C34COC(C)(C3)C4)cc12)c1cccc(C(F)F)c1F` [Example 179, (R)-4-((1-(3-(difluoromethyl)-2-fluorophenyl)ethyl)amino)-2-methyl-6-(1-methyl-2-oxabicyclo[2.1.1]hexan-4-yl)-2,6-dihydropyrido[3,4-d]pyridazine-1,7-dione], 68.4 nM. Take `C[C@@H](Nc1nn(C)c(=O)c2cc(=O)n(C3(C(F)F)CC3)cc12)c1cccc2c1OCCC2(F)F` [Example 180, (R)-4-((1-(4,4-difluorochroman-8-yl)ethyl)amino)-6-(1-(difluoromethyl)cyclopropyl)-2-methyl-2,6-dihydropyrido[3,4-d]pyridazine-1,7-dione]: the IC50 in test [1] was found to be 179 nM. Turning to `C[C@H](Nc1nn(C)c(=O)c2cc(=O)n(C3(C(F)F)CC3)cc12)c1cccc2c1OCCC2(F)F` [Example 181, (S)-4-((1-(4,4-difluorochroman-8-yl)ethyl)amino)-6-(1-(difluoromethyl)cyclopropyl)-2-methyl-2,6-dihydropyrido[3,4-d]pyridazine-1,7-dione], the half-inhibitory concentration (IC50) in test [1] was > 10000 nM.

Consider `C[C@@H](Nc1nn(C)c(=O)c2cc(=O)n(C3CC3)cc12)c1ccc2ccccc2c1` [Example 182, (R)-6-cyclopropyl-2-methyl-4-((1-(naphthalen-2-yl)ethyl)amino)-2,6-dihydropyrido[3,4-d]pyridazine-1,7-dione], for which, in test [1], the IC50 was determined as 2440 nM.

Usually IC50 stands for the concentration that inhibits the measured activity by half. In general, Kd refers to a measure of binding affinity in units of concentration.
